Measurements published in paper PMC4284702, “Cloning and Characterization of Farnesyl Diphosphate Synthase Gene Involved in Triterpenoids Biosynthesis from Poria cocos” (International Journal of Molecular Sciences, 2014).

Biological target: rPc-FPS (Pc-FPS, recombinant farnesyl diphosphate synthase of Poria cocos) (Wolfiporia cocos, UniProt K7DW87)
Assay: GC of farnesol after acid phosphatase hydrolysis of product FPP
Assay type: biochemical
Settings: 2 mM MgCl2, 5 mM DTT, 50 mM MOPS pH 7.5, 30 °C, 3 h

rPc-FPS (Pc-FPS, recombinant farnesyl diphosphate synthase of Poria cocos), sequence (K7DW87 entry or part of it): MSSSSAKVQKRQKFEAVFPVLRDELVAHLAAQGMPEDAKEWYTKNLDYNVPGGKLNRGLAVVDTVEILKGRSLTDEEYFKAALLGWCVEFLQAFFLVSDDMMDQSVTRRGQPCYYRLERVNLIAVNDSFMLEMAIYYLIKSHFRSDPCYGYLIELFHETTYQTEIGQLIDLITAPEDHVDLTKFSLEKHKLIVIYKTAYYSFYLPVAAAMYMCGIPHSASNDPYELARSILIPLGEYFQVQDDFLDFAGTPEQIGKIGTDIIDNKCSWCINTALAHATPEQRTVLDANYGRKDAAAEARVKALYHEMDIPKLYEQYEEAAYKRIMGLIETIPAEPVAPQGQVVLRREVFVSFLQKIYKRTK

Row | Structure (SMILES) | GC of farnesol after acid phosphatase hydrolysis of product FPP (50 uM IPP, co-substrate 50 uM GPP) | GC of farnesol after acid phosphatase hydrolysis of product FPP (50 uM GPP, co-substrate 50 uM IPP)
1 | C=C(C)CCOP(=O)(O)OP(=O)(O)O [IPP] | rPc-FPS could catalyze the formation of FPP from GPP and IPP | –
2 | CC(C)=CCC/C(C)=C/COP(=O)(O)OP(=O)(O)O [GPP] | – | the purified rPc-FPS was used to catalyze GPP with IPP to produce FPP
